# Results as given in US8846951B2 (AbbVie Inc., priority 2009, dated 2014).
# pEC50: −log10 of the molar value. Like-named read-outs stand apart in the source and are kept apart here.
# Key:
# [1] = target: T1, 5HT2C receptors (Homo sapiens, UniProt P28335); experiment: Human 5-HT2C functional high throughput screening assay in CHO-K1 cells (calcium flux); type: cell-based; set-up: expressed in transfected cells; host or cells: CHO-K1 cells; details: for pEC50: CHO-K1 cells, calcium flux; for Emax: CHO-K1, 5-HT2C, maximum functional response as percentage relative to the effect of serotonin
# T1 sequence (P28335 33-458): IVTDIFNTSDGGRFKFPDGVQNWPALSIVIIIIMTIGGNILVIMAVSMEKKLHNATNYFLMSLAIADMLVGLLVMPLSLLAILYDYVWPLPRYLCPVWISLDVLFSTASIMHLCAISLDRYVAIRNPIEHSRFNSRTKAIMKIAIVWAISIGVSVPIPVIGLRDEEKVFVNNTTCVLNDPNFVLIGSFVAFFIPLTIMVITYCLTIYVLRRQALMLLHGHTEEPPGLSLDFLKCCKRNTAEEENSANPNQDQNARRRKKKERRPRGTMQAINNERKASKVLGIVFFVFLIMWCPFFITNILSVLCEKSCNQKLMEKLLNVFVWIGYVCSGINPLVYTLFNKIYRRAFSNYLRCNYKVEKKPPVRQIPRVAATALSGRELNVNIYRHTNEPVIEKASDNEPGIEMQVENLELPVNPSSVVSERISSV
# Outline: (§1)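 Agonism is measured as intracellular calcium increase in receptor-overexpressing CHO-K1 cells, read by FLIPR at 25 °C. Responses are expressed relative to serotonin, with EC50 and Emax derived from a 4-parameter logistic curve over 6 concentrations starting at 10 μM.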
# [2] = target: T2, 5HT2B receptors (Homo sapiens, UniProt P41595); experiment: Human 5-HT2B functional high throughput screening assay in CHO-K1 cells (calcium flux); type: cell-based; details: for pEC50: CHO-K1 cells, calcium flux
# T2 construct: expressed in transfected cells; host or cells: CHO-K1 cells
# T2 sequence (P41595 whole entry): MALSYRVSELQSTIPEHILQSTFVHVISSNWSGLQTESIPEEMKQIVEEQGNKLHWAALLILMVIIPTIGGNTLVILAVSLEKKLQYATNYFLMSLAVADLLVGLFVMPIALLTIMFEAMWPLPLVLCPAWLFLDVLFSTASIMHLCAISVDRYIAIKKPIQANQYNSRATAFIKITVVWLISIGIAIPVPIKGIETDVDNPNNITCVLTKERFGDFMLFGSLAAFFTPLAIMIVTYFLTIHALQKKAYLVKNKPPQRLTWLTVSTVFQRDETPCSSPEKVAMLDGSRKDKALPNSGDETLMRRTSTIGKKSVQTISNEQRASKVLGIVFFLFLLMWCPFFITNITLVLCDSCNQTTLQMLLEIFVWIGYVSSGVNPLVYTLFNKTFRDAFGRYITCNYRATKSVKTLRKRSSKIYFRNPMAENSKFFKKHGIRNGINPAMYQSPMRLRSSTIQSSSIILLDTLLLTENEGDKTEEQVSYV
# Outline: as §1
# [3] = 5-HT2C agonist activity, read-out: EC50
# [4] = 5-HT2B agonist activity, read-out: EC50
# [5] = 5-HT2B, maximum functional response as percentage relative to the effect of serotonin
"pEC50 [1, 3]","pEC50 [2, 4]",Emax ([1]; read-out: Emax),Compound,Emax [1],"Emax [2, 5]","pEC50 ([1]; EC50, 5-HT2C agonist activity)","pEC50 ([2]; EC50, 5-HT2B agonist activity)",Emax ([2]; CHO-K1)
6.15,< 5.00,50%,"CN1C[C@H]2CNC(=O)c3cc(OCc4ccccc4F)ccc3[C@@H]2C1 (relative stereo) [Example 164, Trans-8-(2-fluorobenzyloxy)-2-methyl-1,2,3,3a,4,5-hexahydrobenzo[e]pyrrolo[3,4-c]azepin-6(10bH)-one]",,inactive,,,
,,,"CCC(C)Oc1ccc2c(c1)C(=O)NC[C@@H]1CNC[C@@H]21 (relative stereo) [Example 165, Trans-8-sec-butoxy-1,2,3,3a,4,5-hexahydrobenzo[e]pyrrolo[3,4-c]azepin-6(10bH)-one]",> 120%,inactive,7.10,< 5.00,
,,,"CC(C)COc1ccc2c(c1)C(=O)NC[C@@H]1CNC[C@@H]21 (relative stereo) [Example 166, Trans-8-isobutoxy-1,2,3,3a,4,5-hexahydrobenzo[e]pyrrolo[3,4-c]azepin-6(10bH)-one]",> 120%,inactive,,< 5.00,
,,,"O=C1NC[C@@H]2CNC[C@H]2c2ccc(OCC3CCCCC3)cc21 (relative stereo) [Example 167, Trans-8-(cyclohexylmethoxy)-1,2,3,3a,4,5-hexahydrobenzo[e]pyrrolo[3,4-c]azepin-6(10bH)-one]",> 120%,inactive,8.30,< 5.00,
9.00,< 5.00,> 120%,"O=C1NC[C@@H]2CNC[C@H]2c2ccc(OCc3c(F)cccc3F)cc21 (relative stereo) [Example 168, Trans-8-(2,6-difluorobenzyloxy)-1,2,3,3a,4,5-hexahydrobenzo[e]pyrrolo[3,4-c]azepin-6(10bH)-one]",,inactive,,,
,,,"CC(C)CCOc1ccc2c(c1)C(=O)NC[C@@H]1CNC[C@@H]21 (relative stereo) [Example 169, Trans-8-(isopentyloxy)-1,2,3,3a,4,5-hexahydrobenzo[e]pyrrolo[3,4-c]azepin-6(10bH)-one]",> 120%,inactive,9.00,< 5.00,
,,,"CCC(C)Oc1ccc2c(c1)C(=O)NC[C@@H]1CN(C)C[C@@H]21 (relative stereo) [Example 170, Trans-8-sec-butoxy-2-methyl-1,2,3,3a,4,5-hexahydrobenzo[e]pyrrolo[3,4-c]azepin-6(10bH)-one]",120%,inactive,7.15,< 5.00,
,,,"CC(C)CCOc1ccc2c(c1)C(=O)NC[C@@H]1CN(C)C[C@@H]21 (relative stereo) [Example 171, Trans-8-(isopentyloxy)-2-methyl-1,2,3,3a,4,5-hexahydrobenzo[e]pyrrolo[3,4-c]azepin-6(10bH)-one]",> 120%,inactive,7.52,< 5.00,
,,,"CC(C)COc1ccc2c(c1)C(=O)NC[C@@H]1CN(C)C[C@@H]21 (relative stereo) [Example 172, Trans-8-isobutoxy-2-methyl-1,2,3,3a,4,5-hexahydrobenzo[e]pyrrolo[3,4-c]azepin-6(10bH)-one]",> 120%,inactive,7.22,< 5.00,
7.70,< 5.00,> 120%,"COc1ccccc1CCOc1ccc2c(c1)C(=O)NC[C@@H]1CNC[C@@H]21 (relative stereo) [Example 173, Trans-8-(2-methoxyphenethoxy)-1,2,3,3a,4,5-hexahydrobenzo[e]pyrrolo[3,4-c]azepin-6(10bH)-one]",,inactive,,,
7.52,< 5.00,110%,"COc1cccc(CCOc2ccc3c(c2)C(=O)NC[C@@H]2CNC[C@@H]32)c1 (relative stereo) [Example 174, Trans-8-(3-methoxyphenethoxy)-1,2,3,3a,4,5-hexahydrobenzo[e]pyrrolo[3,4-c]azepin-6(10bH)-one]",,inactive,,,
8.22,< 5.00,> 120%,"COc1ccc(CCOc2ccc3c(c2)C(=O)NC[C@@H]2CNC[C@@H]32)cc1 (relative stereo) [Example 175, Trans-8-(4-methoxyphenethoxy)-1,2,3,3a,4,5-hexahydrobenzo[e]pyrrolo[3,4-c]azepin-6(10bH)-one]",,inactive,,,
,,,"O=C1NC[C@@H]2CNC[C@H]2c2ccc(-c3ccncc3)cc21 (relative stereo) [Example 177, Trans-8-(pyridin-4-yl)-1,2,3,3a,4,5-hexahydrobenzo[e]pyrrolo[3,4-c]azepin-6(10bH)-one]",> 120%,inactive,7.00,< 5.00,
,,,"COc1ncc(-c2ccc3c(c2)C(=O)NC[C@@H]2CNC[C@@H]32)cn1 (relative stereo) [Example 178, Trans-8-(2-methoxypyrimidin-5-yl)-1,2,3,3a,4,5-hexahydrobenzo[e]pyrrolo[3,4-c]azepin-6(10bH)-one]",> 120%,inactive,7.15,< 5.00,
9.52,< 5.00,> 120%,"O=C1NC[C@@H]2CNC[C@H]2c2ccc(-c3ccsc3)cc21 (relative stereo) [Example 184, Trans-8-(thiophen-3-yl)-1,2,3,3a,4,5-hexahydrobenzo[e]pyrrolo[3,4-c]azepin-6(10bH)-one]",,inactive,,,
9.00,< 5.00,120%,"CN1C[C@H]2CNC(=O)c3cc(-c4cccc(C(C)(O)C(F)(F)F)c4)ccc3[C@@H]2C1 (relative stereo) [Example 185, Trans-2-methyl-8-(3-(1,1,1-trifluoro-2-hydroxypropan-2-yl)phenyl)-1,2,3,3a,4,5-hexahydrobenzo[e]pyrrolo[3,4-c]azepin-6(10bH)-one]",,inactive,,,
9.00,< 5.00,> 120%,"CN1C[C@H]2CNC(=O)c3cc(-c4cccc(C(C)(C)O)c4)ccc3[C@@H]2C1 (relative stereo) [Example 186, Trans-8-(3-(2-hydroxypropan-2-yl)phenyl)-2-methyl-1,2,3,3a,4,5-hexahydrobenzo[e]pyrrolo[3,4-c]azepin-6(10bH)-one]",,inactive,,,
8.52,< 5.00,> 120%,"CC(=O)c1cccc(-c2ccc3c(c2)C(=O)N(C)C[C@@H]2CNC[C@@H]32)c1 (relative stereo) [Example 187, Trans-8-(3-acetylphenyl)-5-methyl-1,2,3,3a,4,5-hexahydrobenzo[e]pyrrolo[3,4-c]azepin-6(10bH)-one]",,inactive,,,
,,,"COc1ccc2c(c1)C(=O)N(C)C[C@@H]1CNC[C@@H]21 (relative stereo) [Example 188, Trans-8-methoxy-5-methyl-1,2,3,3a,4,5-hexahydrobenzo[e]pyrrolo[3,4-c]azepin-6(10bH)-one]",> 120%,,7.22,6.00,90%
9.05,< 5.00,> 120%,"CN1C[C@@H]2CNC[C@H]2c2ccc(-c3cccc(CCO)c3)cc2C1=O (relative stereo) [Example 189, Trans-8-(3-(2-hydroxyethyl)phenyl)-5-methyl-1,2,3,3a,4,5-hexahydrobenzo[e]pyrrolo[3,4-c]azepin-6(10bH)-one]",,inactive,,,
,,,"COc1ccc2c(c1)C(=O)N(C)C[C@@H]1CN(C)C[C@@H]21 (relative stereo) [Example 190, Trans-8-methoxy-2,5-dimethyl-1,2,3,3a,4,5-hexahydrobenzo[e]pyrrolo[3,4-c]azepin-6(10bH)-one]",> 120%,inactive,7.00,< 5.00,

Compound,"pEC50 [1, 3]","pEC50 [2, 4]",Emax ([1]; read-out: Emax),Emax [1],"Emax [2, 5]","pEC50 ([1]; EC50, 5-HT2C agonist activity)","pEC50 ([2]; EC50, 5-HT2B agonist activity)",Emax ([2]; CHO-K1)
"O=C1NC[C@@H]2CNC[C@H]2c2cccnc21 (relative stereo) [Example 157, Trans-1,2,3,3a,4,5-hexahydropyrido[3,2-e]pyrrolo[3,4-c]azepin-6(10bH)-one]",5.52,< 5.00,,110%,inactive,,,
"CN1C[C@H]2CNC(=O)c3cc(OCC4CCCCC4)ccc3[C@@H]2C1 (relative stereo) [Example 176, Trans-8-(cyclohexylmethoxy)-2-methyl-1,2,3,3a,4,5-hexahydrobenzo[e]pyrrolo[3,4-c]azepin-6(10bH)-one]",6.70,< 5.00,,> 120%,inactive,,,
